Results taken from ChEMBL document CHEMBL1201862, “PubChem BioAssay data set” (2004).
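A five-concentration, 48-hour dose response in 96-well plates underlies each endpoint, interpolated linearly between surrounding concentrations. GI50 is the concentration that inhibits growth by half.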 Active and inactive are the calls of the source. Rule as the data show it: active = GI50 up to about 1.1 µM and inactive = higher.

What was measured:
Assay in all cases: NCI anticancer screen, dose series, 48 h
[1] = test system: A549
[2] = test system: ACHN
[3] = test system: CAKI-1
[4] = test system: CCRF-CEM
[5] = test system: DLD-1
[6] = test system: HCT-116
[7] = test system: HL-60
[8] = test system: HOP-92
[9] = test system: IGROV-1
[10] = test system: KM-20L2
[11] = test system: MOLT-4
[12] = test system: NCI-H460
[13] = test system: RXF 393
[14] = test system: SF-539
[15] = test system: SK-MEL-28
[16] = test system: SNB-19
[17] = test system: UO-31
[18] = test system: SK-MEL-2
[19] = test system: OVCAR-5

Measured: GI50

O=C(O)CCc1nn2c(nc1=O)sc1ccc3ccccc3c12
inactive: [1] > 100 µM | [2] > 100 µM | [3] > 100 µM | [4] > 100 µM | [5] > 100 µM | [6] > 100 µM | [7] > 100 µM | [8] > 100 µM | [9] > 100 µM | [10] > 100 µM | [11] > 100 µM | [12] > 100 µM | [13] > 100 µM | [14] > 100 µM | [15] > 100 µM | [16] > 100 µM | [17] > 100 µM

Cc1cccc2c(=O)cc(-c3ccccc3)[nH]c12
inactive: [1] 6.11 µM | [2] 12.2 µM | [4] 3.62 µM | [5] 4.31 µM | [6] 5.06 µM | [7] 3.25 µM | [9] 7.26 µM | [10] 4.07 µM | [11] 4.54 µM | [12] 3.95 µM | [13] 3.62 µM | [14] 5.69 µM | [15] > 100 µM | [18] 4.6 µM | [16] 7.94 µM | [17] 15.6 µM

CCOC(=O)/C(C(=O)c1ccccc1)=C1\N[C@H](C(=O)OCC)CS1
inactive: [1] > 100 µM | [2] > 100 µM | [3] > 100 µM | [4] > 100 µM | [5] > 100 µM | [6] > 100 µM | [7] > 100 µM | [9] > 100 µM | [10] > 100 µM | [11] > 100 µM | [12] > 100 µM | [19] > 100 µM | [13] > 100 µM | [14] 10 µM | [15] > 100 µM | [18] > 100 µM | [16] > 100 µM | [17] > 100 µM

C/C(=N\NC(=S)NC(CCC(=O)O)C(=O)O)c1cnccn1 (centres undefined)
inactive: [1] > 100 µM | [2] > 100 µM | [4] > 100 µM | [5] > 100 µM | [6] > 100 µM | [7] > 100 µM | [8] > 100 µM | [9] > 100 µM | [10] > 100 µM | [11] > 100 µM | [12] > 100 µM | [19] > 100 µM | [13] > 100 µM | [14] > 100 µM | [15] > 100 µM | [18] > 100 µM | [16] > 100 µM | [17] > 100 µM

Cc1ccc(S(=O)(=O)N/N=C(\CCN2CCCC2)CC(c2ccccc2)c2c(O)c3ccccc3oc2=O)cc1 (centres undefined)
inactive: [1] > 100 µM | [2] > 100 µM | [3] > 100 µM | [4] 95.5 µM | [5] > 100 µM | [6] > 100 µM | [7] > 100 µM | [8] 72.3 µM | [9] > 100 µM | [10] > 100 µM | [12] > 100 µM | [19] > 100 µM | [13] > 100 µM | [14] > 100 µM | [18] > 100 µM | [16] > 100 µM | [17] > 100 µM

N#Cc1c(-c2ccccc2)cc(-c2ccc(N)cc2)[nH]c1=O
inactive: [1] > 100 µM | [2] > 100 µM | [4] > 100 µM | [5] > 100 µM | [6] > 100 µM | [7] > 100 µM | [8] > 100 µM | [9] > 100 µM | [10] > 100 µM | [11] > 100 µM | [12] > 100 µM | [19] > 100 µM | [13] > 100 µM | [14] > 100 µM | [15] > 100 µM | [16] > 100 µM | [17] > 100 µM

CCOC(=O)NC(=O)c1cn(C2OC(COC(=O)CCCCCCCCC(=O)OCC3OC(n4cc(C(=O)NC(=O)OCC)c(=O)[nH]c4=O)C(O)C3O)C(O)C2O)c(=O)[nH]c1=O (centres undefined)
inactive: [1] > 100 µM | [2] > 100 µM | [3] > 100 µM | [4] > 100 µM | [5] > 100 µM | [6] > 100 µM | [7] > 100 µM | [9] > 100 µM | [10] > 100 µM | [11] > 100 µM | [12] > 100 µM | [19] > 100 µM | [13] > 100 µM | [14] > 100 µM | [15] > 100 µM | [18] > 100 µM | [16] > 100 µM | [17] > 100 µM

COC1OC(OC)C2C(c3c(C)cc(C)cc3C)=NOC12 (centres undefined)
inactive: [1] > 100 µM | [2] > 100 µM | [3] > 100 µM | [4] > 100 µM | [5] > 100 µM | [6] > 100 µM | [7] > 100 µM | [8] > 100 µM | [9] > 100 µM | [10] > 100 µM | [11] > 100 µM | [12] > 100 µM | [19] > 100 µM | [13] > 100 µM | [15] > 100 µM | [18] > 100 µM | [16] > 100 µM | [17] > 100 µM
